What was measured:
[1] = molecular target: T1, Purine nucleoside phosphorylase (Homo sapiens, UniProt P00491); assay: Binding affinity to human PNP
T1 sequence (P00491 whole entry): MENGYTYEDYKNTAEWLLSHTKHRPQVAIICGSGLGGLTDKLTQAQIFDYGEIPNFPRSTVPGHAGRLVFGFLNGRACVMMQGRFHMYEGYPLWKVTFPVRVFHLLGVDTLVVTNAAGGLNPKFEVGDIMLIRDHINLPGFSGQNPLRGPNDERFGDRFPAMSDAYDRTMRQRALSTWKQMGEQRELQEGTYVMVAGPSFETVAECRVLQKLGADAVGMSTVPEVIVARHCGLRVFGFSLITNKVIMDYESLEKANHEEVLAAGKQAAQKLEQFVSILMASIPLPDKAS

[2] = molecular target: T2, Purine nucleoside phosphorylase (Homo sapiens) (UniProt P00491); assay: Binding affinity to human PNP assessed as kinetic isotope effect; conditions: tested as the 3H-labelled form
T2 sequence (whole entry): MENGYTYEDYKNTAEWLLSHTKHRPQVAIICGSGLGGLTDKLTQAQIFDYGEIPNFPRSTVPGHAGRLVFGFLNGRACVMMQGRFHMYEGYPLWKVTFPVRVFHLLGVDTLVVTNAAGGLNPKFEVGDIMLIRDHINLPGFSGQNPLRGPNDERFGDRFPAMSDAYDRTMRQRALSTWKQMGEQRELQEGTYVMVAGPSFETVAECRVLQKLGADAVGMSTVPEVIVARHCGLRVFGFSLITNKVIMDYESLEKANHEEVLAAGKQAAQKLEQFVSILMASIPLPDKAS

[3] = substrate: O=c1[nH]cnc2c1ncn2[C@@H]1O[C@H](CO)[C@@H](O)[C@H]1O; assay: Activity at human PNP

## [3H]C(O)[C@H]1CN(Cc2c[nH]c3c(=O)[nH]cnc23)C[C@@H]1O (stereo partly drawn)
[1]
  Kd: 8.5 pM

## O=c1[nH]cnc2c1ncn2[C@@H]1O[C@H](CO)[C@@H](O)[C@H]1O
[2]
  Activity: 4.7%

B1: Purine nucleoside phosphorylase (Homo sapiens), P00491 (protein)
chain: MENGYTYEDYKNTAEWLLSHTKHRPQVAIICGSGLGGLTDKLTQAQIFDYGEIPNFPRSTVPGHAGRLVFGFLNGRACVMMQGRFHMYEGYPLWKVTFPVRVFHLLGVDTLVVTNAAGGLNPKFEVGDIMLIRDHINLPGFSGQNPLRGPNDERFGDRFPAMSDAYDRTMRQRALSTWKQMGEQRELQEGTYVMVAGPSFETVAECRVLQKLGADAVGMSTVPEVIVARHCGLRVFGFSLITNKVIMDYESLEKANHEEVLAAGKQAAQKLEQFVSILMASIPLPDKAS
[3]
  Km: 40 µM

Source: ChEMBL document CHEMBL1212725, “Enzymatic transition states and dynamic motion in barrier crossing” (Nat Chem Biol, 2009)
